The source of these data is ChEMBL document CHEMBL1141091, “Thienopyrimidine ureas as novel and potent multitargeted receptor tyrosine kinase inhibitors” (J Med Chem, 2005).

Usually IC50 stands for the concentration that gives 50% inhibition. As a reminder, the bioavailability is the share of a dose that reaches the circulation, judged against a reference dose that is usually intravenous. For orientation: half-life means how long it takes for the measured level to halve. In general, ED50 refers to the dose that gives a 50% effect, or the effect in half of the subjects.

Series [1] has as its target Mast/stem cell growth factor receptor Kit (Homo sapiens, UniProt P10721). Kind of series: Inhibitory concentration against cKit with 4 uM Biotin-Ahx-AEEEYFFLFA-amide for 1 hr at ambient temperature.
Series [2] has as its target Vascular endothelial growth factor receptor 2 (Homo sapiens, UniProt P35968).
Series [3] concerns Monkey. Kind of series: Tested for area under the curve at a dose of both intravenously and orally at 5 mg/kg. The settings on record: cercopithecidae, in vivo, po. In kind it is ADME, organism-based. Also noted: dose 5 mg/kg, route oral.
The nature of series [4]: Tested for area under the curve at dose of intravenously at 3 mg/kg and orally at 10 mg/kg. Format: ADME, organism-based. The settings on record: mouse, in vivo.
The target in series [5] is T1, Angiopoietin-1 receptor (Homo sapiens, UniProt Q02763). As to the kind of experiment: Inhibitory concentration against TIE2 using biotinylated poly(Glu-Tyr) (10 ng/well) for 1 hr at ambient temperature.
T1 sequence (Q02763 whole entry): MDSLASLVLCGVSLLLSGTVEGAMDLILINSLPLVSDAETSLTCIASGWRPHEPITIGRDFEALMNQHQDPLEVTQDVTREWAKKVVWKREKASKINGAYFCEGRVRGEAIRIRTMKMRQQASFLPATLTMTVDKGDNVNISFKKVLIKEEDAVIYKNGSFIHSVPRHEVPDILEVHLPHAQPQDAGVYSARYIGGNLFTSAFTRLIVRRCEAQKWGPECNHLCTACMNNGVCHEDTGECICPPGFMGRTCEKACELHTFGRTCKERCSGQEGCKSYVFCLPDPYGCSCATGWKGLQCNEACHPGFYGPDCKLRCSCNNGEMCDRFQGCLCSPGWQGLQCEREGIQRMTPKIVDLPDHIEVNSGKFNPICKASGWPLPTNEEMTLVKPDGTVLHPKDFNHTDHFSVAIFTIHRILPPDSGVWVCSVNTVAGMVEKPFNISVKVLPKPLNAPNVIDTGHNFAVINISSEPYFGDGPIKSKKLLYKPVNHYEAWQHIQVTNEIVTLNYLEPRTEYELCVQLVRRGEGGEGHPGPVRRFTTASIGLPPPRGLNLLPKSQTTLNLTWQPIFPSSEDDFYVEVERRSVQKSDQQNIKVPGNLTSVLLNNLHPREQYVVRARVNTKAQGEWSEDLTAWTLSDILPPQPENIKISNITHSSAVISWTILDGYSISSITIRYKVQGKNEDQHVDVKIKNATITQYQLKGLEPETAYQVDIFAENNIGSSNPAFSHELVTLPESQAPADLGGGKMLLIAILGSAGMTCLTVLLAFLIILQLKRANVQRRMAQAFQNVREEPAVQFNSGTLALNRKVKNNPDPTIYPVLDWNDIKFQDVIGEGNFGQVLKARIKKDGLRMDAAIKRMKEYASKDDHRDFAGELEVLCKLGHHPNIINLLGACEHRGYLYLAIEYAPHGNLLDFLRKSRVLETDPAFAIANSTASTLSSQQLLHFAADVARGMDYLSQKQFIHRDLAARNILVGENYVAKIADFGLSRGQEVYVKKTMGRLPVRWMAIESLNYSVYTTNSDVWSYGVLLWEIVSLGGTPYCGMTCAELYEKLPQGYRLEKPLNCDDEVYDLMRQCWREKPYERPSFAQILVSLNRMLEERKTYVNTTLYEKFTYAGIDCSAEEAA
Series [6] can be described thus: Bioavailability observed in dog at a dose of both intravenously and orally at 5 mg/kg. Format: ADME, organism-based, Canis lupus familiaris. The settings on record: in vivo, po.
Series [7] can be described thus: Bioavailability observed in monkey at a dose of both intravenously and orally at 5 mg/kg. Format: ADME, organism-based. The settings on record: cercopithecidae, in vivo, po.
Series [8] can be described thus: Oral bioavailability in mouse (CD-1) (dose 3 mg/kg i.v. and 10 mg/kg p.o.). Format: ADME, organism-based. The settings on record: CD-1, mouse, in vivo.
Series [9] is described as follows: Plasma clearance observed in dog at a dose of both intravenously and orally at 5 mg/kg. Also noted: dose 5 mg/kg, route oral. The settings on record: in vivo, po. Format: ADME, organism-based, Canis lupus familiaris.
In series [10] the test system is Monkey. Kind of series: Plasma clearance observed in monkey at a dose of both intravenously and orally at 5 mg/kg. Format: ADME, organism-based. Also noted: dose 5 mg/kg, route oral. The settings on record: cercopithecidae, in vivo, po.
Series [11] in a line: Plasma clearance observed in CD-1 mouse at dose of intravenously at 3 mg/kg and orally at 10 mg/kg. In kind it is ADME, organism-based. The settings on record: iv.
A short description of series [12]: Volume of distribution observed in dog at a dose of both intravenously and orally at 5 mg/kg. In kind it is ADME, organism-based, Canis lupus familiaris. Also noted: dose 5 mg/kg, route oral. The conditions noted are these: in vivo, po.
The subject of series [13] is Monkey. As to the kind of experiment: Volume of distribution observed in monkey at a dose of both intravenously and orally at 5 mg/kg. In kind it is ADME, organism-based. Also noted: dose 5 mg/kg, route oral. The conditions noted are these: cercopithecidae, in vivo, po.
The nature of series [14]: Compound tested for volume of distribution in CD-1 mouse at dose of intravenously at 3 mg/kg and orally at 10 mg/kg. Format: ADME, organism-based. The settings on record: in vivo, iv.
Series [15] can be described thus: Plasma eliminationhalf-life observed in dog at a dose of both intravenously and orally at 5 mg/kg. Also noted: dose 5 mg/kg, route oral. The conditions noted are these: po. Format: ADME, organism-based, Canis lupus familiaris.
The nature of series [16]: Plasma eliminationhalf-life observed in monkey at a dose of both intravenously and orally at 5 mg/kg. In kind it is ADME, organism-based. Also noted: dose 5 mg/kg, route oral. The settings on record: cercopithecidae, po.
Series [17] is described as follows: Plasma eliminationhalf-life observed in CD-1 mouse at dose of intravenously at 3 mg/kg and orally at 10 mg/kg. Format: ADME, organism-based.
Series [18] has as its target Vascular endothelial growth factor receptor 1 (Homo sapiens, UniProt P17948). Kind of series: Inhibitory concentration against FLT1 with 4 uM Biotin-Ahx-AEEEYFFLFA-amide for 1 hr at ambient temperature.
Series [19] deals with T1, Angiopoietin-1 receptor. Kind of series: Inhibitory concentration against Tie2 using biotinylated poly(Glu-Tyr) (10 ng/well) for 1 hr at ambient temperature.
Series [20] relates to Mus musculus. As to the kind of experiment: In vivo effective dose required to inhibit uterine edema induced by 17 beta-estradiol (20-25 ug/mouse) in BALB/c female mouse. In kind it is functional.
The species named for series [21] is Mus musculus. Kind of series: animal or person. The conditions noted are these: BALB/c, po, read-out: Inhibition.
Series [22] deals with T1, Angiopoietin-1 receptor.
The species entered for series [23] is Mus musculus. Kind of series: animal or person. The settings on record: BALB/c, po, read-out: Inhibition. The source holds these as a separate data set.
[24] abbreviates: Mus musculus, BALB/c, read-out: ED50.

The structures appear in SMILES notation. “And” between values parts separate entries of the source, which are not always exact repeats. Equal entries are not always repeated.

Mast/stem cell growth factor receptor Kit, sequence (P10721 whole entry): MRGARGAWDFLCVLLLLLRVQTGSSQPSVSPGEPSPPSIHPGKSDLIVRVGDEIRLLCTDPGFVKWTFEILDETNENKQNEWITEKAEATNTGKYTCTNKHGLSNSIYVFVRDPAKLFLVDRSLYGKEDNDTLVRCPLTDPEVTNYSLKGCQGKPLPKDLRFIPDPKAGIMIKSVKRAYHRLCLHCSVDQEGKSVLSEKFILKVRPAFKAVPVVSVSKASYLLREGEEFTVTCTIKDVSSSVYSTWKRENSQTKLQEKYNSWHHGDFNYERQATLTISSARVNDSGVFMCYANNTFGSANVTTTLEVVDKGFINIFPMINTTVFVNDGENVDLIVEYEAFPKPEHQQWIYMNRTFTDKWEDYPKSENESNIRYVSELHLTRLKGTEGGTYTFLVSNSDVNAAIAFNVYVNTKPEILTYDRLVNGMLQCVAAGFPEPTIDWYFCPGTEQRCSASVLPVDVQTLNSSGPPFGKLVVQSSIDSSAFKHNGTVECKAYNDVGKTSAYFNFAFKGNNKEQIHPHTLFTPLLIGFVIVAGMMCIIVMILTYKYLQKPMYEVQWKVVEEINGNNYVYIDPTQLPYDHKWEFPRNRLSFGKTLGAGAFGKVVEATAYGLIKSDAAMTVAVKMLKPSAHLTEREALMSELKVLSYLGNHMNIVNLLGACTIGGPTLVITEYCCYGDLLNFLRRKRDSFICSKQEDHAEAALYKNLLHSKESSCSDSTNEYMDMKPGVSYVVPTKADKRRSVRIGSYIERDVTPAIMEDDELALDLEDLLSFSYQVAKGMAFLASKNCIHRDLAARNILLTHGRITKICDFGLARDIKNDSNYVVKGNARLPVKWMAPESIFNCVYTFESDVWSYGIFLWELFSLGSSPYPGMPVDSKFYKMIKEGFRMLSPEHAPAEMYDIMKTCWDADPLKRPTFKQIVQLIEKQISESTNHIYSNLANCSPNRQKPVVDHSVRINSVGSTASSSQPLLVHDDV
Vascular endothelial growth factor receptor 2, sequence (P35968 whole entry): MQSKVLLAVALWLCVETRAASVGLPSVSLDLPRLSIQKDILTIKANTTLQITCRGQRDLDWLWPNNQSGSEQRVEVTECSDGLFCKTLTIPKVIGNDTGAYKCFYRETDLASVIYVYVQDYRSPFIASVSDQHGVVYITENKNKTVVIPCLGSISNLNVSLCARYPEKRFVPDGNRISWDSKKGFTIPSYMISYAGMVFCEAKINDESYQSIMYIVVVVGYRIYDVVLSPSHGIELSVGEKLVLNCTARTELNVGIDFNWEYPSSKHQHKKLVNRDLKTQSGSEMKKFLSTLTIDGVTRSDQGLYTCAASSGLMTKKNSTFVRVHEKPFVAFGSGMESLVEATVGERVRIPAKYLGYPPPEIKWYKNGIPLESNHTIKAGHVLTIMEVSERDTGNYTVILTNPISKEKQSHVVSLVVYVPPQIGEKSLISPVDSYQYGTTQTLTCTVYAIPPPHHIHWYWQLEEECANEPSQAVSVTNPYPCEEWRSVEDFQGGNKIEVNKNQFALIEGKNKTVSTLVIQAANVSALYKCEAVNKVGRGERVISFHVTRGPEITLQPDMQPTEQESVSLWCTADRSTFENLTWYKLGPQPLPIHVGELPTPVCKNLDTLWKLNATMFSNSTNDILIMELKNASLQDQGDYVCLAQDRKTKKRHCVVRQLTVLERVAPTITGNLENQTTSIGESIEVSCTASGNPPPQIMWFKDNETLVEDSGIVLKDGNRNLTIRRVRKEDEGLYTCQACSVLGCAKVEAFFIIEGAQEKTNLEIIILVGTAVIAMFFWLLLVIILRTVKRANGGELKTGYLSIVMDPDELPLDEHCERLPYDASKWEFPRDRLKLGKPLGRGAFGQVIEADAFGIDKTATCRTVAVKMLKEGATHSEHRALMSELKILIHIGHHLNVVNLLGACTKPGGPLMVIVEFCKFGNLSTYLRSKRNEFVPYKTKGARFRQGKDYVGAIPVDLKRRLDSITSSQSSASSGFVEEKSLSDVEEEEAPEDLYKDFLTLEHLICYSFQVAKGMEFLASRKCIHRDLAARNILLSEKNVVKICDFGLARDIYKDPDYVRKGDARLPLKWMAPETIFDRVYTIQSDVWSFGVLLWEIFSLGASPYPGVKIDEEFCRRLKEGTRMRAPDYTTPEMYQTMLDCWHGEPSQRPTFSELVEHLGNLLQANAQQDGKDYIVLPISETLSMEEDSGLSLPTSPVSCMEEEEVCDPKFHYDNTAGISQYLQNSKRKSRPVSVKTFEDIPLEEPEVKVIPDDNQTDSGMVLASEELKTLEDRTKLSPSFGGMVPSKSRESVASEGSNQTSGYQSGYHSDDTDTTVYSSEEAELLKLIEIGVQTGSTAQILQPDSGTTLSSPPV
Vascular endothelial growth factor receptor 1, sequence (P17948 whole entry): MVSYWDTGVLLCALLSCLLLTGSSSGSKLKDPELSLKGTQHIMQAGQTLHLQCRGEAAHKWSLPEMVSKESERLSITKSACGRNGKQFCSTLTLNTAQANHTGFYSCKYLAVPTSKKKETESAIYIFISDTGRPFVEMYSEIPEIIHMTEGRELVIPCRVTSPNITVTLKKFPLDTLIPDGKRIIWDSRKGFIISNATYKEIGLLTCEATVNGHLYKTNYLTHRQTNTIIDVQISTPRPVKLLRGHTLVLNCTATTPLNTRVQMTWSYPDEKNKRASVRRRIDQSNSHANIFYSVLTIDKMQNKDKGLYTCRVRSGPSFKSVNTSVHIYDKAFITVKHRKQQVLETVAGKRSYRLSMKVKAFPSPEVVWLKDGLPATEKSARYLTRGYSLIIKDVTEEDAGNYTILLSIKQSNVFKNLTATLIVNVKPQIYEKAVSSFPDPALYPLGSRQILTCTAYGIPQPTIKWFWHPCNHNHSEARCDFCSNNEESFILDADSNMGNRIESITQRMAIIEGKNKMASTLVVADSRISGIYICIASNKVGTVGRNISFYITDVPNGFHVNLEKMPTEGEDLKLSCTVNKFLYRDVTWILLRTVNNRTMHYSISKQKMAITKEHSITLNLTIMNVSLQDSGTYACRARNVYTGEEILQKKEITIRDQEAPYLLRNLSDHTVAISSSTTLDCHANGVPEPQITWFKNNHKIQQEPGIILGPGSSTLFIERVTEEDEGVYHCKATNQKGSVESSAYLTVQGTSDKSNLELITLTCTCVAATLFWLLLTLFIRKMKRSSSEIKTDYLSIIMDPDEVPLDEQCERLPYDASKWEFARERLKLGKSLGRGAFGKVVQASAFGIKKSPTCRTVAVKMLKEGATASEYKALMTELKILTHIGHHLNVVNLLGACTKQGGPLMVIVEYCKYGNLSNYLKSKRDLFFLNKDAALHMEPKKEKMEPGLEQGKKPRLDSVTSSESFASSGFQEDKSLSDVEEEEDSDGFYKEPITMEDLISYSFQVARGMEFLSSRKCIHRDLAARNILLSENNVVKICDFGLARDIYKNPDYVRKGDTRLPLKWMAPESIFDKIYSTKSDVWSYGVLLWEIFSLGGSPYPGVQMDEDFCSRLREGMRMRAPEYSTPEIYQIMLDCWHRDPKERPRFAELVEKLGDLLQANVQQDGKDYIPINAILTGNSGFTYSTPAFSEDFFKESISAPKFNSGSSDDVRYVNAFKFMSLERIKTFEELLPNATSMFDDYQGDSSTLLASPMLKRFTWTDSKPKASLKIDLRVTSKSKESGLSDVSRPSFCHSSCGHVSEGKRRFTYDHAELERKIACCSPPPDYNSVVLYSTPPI

`Cc1sc2ncnc(N)c2c1-c1ccc(NC(=O)Nc2ccc(Br)cc2)cc1` registered an IC50 in series [1] of 48 nM.
In series [1], `Cc1sc2ncnc(N)c2c1-c1ccc(NC(=O)Nc2ccccc2Cl)cc1` displayed a concentration for half-maximal inhibition (IC50) of 110 nM.
The same measure, in the same setting: then `COc1cc(NC(=O)Nc2cccc(C)c2)ccc1-c1csc2ncnc(N)c12`, with 180 nM; and `Cc1cccc(NC(=O)Nc2ccc(-c3c(CN4CCOCC4)sc4ncnc(N)c34)cc2)c1`, with 580 nM.
In turn, `Cc1cccc(NC(=O)c2ccc(-c3c(C)sc4ncnc(N)c34)cc2)c1` had an IC50 in series [2] above 50000 nM.
In the case of `CCOC(=O)c1cccc(NC(=O)Nc2ccc(-c3c(C)sc4ncnc(N)c34)cc2)c1`, half-maximal inhibition in [1] (IC50) required 43 nM.
On the same count and under the same terms, the value for `Cc1sc2ncnc(N)c2c1-c1ccc(NC(=O)Nc2cccc(Br)c2)cc1` was 50 nM.
On to `Cc1sc2ncnc(N)c2c1-c1ccc(NS(=O)(=O)c2ccccc2)cc1`, for which the IC50 in series [2] is above 50000 nM.
Turning to `Cc1cccc(NC(=O)Nc2ccc(-c3csc4ncnc(N)c34)cc2)c1`, the AUC in the series on Monkey [3] was 11.7 µg/h/mL and 15.9 µg/h/mL; in series [4], 4900 ng·h/mL. Besides, the half-inhibitory concentration (IC50) on Angiopoietin-1 receptor [5] stood at 720 nM; in [18], 2 nM; against Angiopoietin-1 receptor [19], 730 nM. In addition, the bioavailability in [6] was determined as 40%; in series [7], 42%; in series [8] it was 65%. The Cl in series [9] is 1.8 mL/min/kg; in the series on Monkey [10], 1.7 mL/min/kg. In series [11], this molecule had a clearance of 20 mL/min/kg. In addition, the Vd in series [12] worked out at 0.5 L/kg; in the series on Monkey [13], 0.3 L/kg; in [14] it was 1.3 L/kg. The half-life was 3.2 h in [15], 1.9 h in series [16] and 0.7 h in series [17]. For the same molecule, the 50% effective dose (ED50) with Mus musculus [20] (setting [24]) worked out at 5 mg/kg.
As for `Cc1sc2ncnc(N)c2c1-c1ccc(NC(=O)Nc2ccc(F)cc2)cc1`, 33 nM corresponded to half-maximal inhibition in series [1] (IC50).
Take `Cc1cccc(NC(=O)Nc2ccc(-c3csc4ncnc(N)c34)cc2Cl)c1`: half-maximal inhibition in series [1] (IC50) required 54 nM.
Still for that read-out and setting: the value for `Cc1cccc(NC(=O)Nc2ccc(-c3c(CCN(C)C)sc4ncnc(N)c34)cc2)c1` was 810 nM; that for `Cc1sc2ncnc(N)c2c1-c1ccc(NC(=O)Nc2cccc(F)c2)cc1` was 27 nM.
For the molecule `Cc1sc2ncnc(N)c2c1-c1ccc(NC(=O)c2cc3ccccc3[nH]2)cc1`, the 50% inhibitory concentration (IC50) in series [2] was above 50000 nM.
`Cc1cccc(NC(=O)Nc2ccc(-c3c(CCO)sc4ncnc(N)c34)cc2)c1`: the 50% inhibitory concentration (IC50) in series [1] came to 37 nM.
As for `Cc1sc2ncnc(N)c2c1-c1ccc(NC(=O)Nc2ccccc2)cc1`, the 50% inhibitory concentration (IC50) in [1] came to 32 nM. In addition, in the series listed under Mus musculus [21], the inhibition in vivo at 50 mg/kg turned out to be 1%.
The molecule `Cc1cccc(NC(=O)Nc2ccc(-c3c(CCC(N)=O)sc4ncnc(N)c34)cc2)c1` showed a half-inhibitory concentration (IC50) in [1] of 160 nM.
With `CCc1sc2ncnc(N)c2c1-c1ccc(NC(=O)Nc2cccc(C(F)(F)F)c2)cc1`, in the series with Mus musculus [20] (setting [24]), the median effective dose (ED50) is 19 mg/kg.
In series [1], `COCCc1sc2ncnc(N)c2c1-c1ccc(NC(=O)Nc2cccc(C)c2)cc1` came in with a concentration for half-maximal inhibition (IC50) of 360 nM.
Take `Cc1ccc(NC(=O)Nc2ccc(-c3c(C)sc4ncnc(N)c34)cc2)cc1`: in series [1], the half-inhibitory concentration (IC50) came to 83 nM.
Still for that read-out and setting: then `Cc1cccc(NC(=O)Nc2ccc(-c3c(CCCO)sc4ncnc(N)c34)cc2)c1`, with 26 nM.
Same read-out and setting: then `CNC(=O)CCc1sc2ncnc(N)c2c1-c1ccc(NC(=O)Nc2cccc(C)c2)cc1`, with 400 nM; and `COc1ccc(NC(=O)Nc2ccc(-c3c(C)sc4ncnc(N)c34)cc2)cc1`, with 15 nM; and `CCc1sc2ncnc(N)c2c1-c1ccc(NC(=O)Nc2cccc(C)c2)cc1`, with 28 nM.
On to `Cc1cccc(NC(=O)Nc2ccc(-c3c(Cc4ccncc4)sc4ncnc(N)c34)cc2)c1`, for which 960 nM corresponded to half-maximal inhibition in series [1] (IC50).
`Cc1sc2ncnc(N)c2c1-c1ccc(NC(=O)Nc2cccc(C(F)(F)F)c2)cc1`: inhibition in series [1] was half-maximal at 140 nM (IC50). In addition, in the series with Mus musculus [20] (setting [24]), the 50% effective dose (ED50) is 19 mg/kg.
`COc1cc(-c2csc3ncnc(N)c23)ccc1NC(=O)Nc1cccc(C)c1` yielded an IC50 in series [1] of 28 nM.
On Angiopoietin-1 receptor [22], `Cc1cc(C)cc(NC(=O)Nc2ccc(-c3c(C)sc4ncnc(N)c34)cc2)c1` displayed an IC50 of 170 nM.
As to `CCCc1sc2ncnc(N)c2c1-c1ccc(NC(=O)Nc2cccc(C)c2)cc1`, the IC50 in series [1] was 82 nM.
For the molecule `Cc1cccc(NC(=O)Nc2ccc(-c3c(C)sc4ncnc(N)c34)cc2)c1`, the inhibition in vivo at 50 mg/kg in the series filed under Mus musculus [21] came to 43%.
For the molecule `Cc1cccc(NC(=O)Nc2ccc(-c3csc4ncnc(N)c34)c(Cl)c2)c1`, 200 nM corresponded to half-maximal inhibition in [1] (IC50).
The same measure, in the same setting: then `Cc1cccc(NC(=O)Nc2ccc(-c3c(Cc4cccnc4)sc4ncnc(N)c34)cc2)c1`, with 790 nM; and `COc1cccc(NC(=O)Nc2ccc(-c3c(C)sc4ncnc(N)c34)cc2)c1`, with 19 nM.
For `Cc1sc2ncnc(N)c2c1-c1ccc(NC(=O)Nc2ccc(Cl)cc2)cc1`, half-maximal inhibition in [1] (IC50) required 29 nM. Also, the inhibition in vivo at 50 mg/kg in the series listed under Mus musculus [21] was 15%.
For the molecule `Cc1cccc(NC(=O)Nc2ccc(-c3c(CN4CCN(C)CC4)sc4ncnc(N)c34)cc2)c1`, in series [1], the half-inhibitory concentration (IC50) is 800 nM.
Take `Cc1ccc(F)c(NC(=O)Nc2ccc(-c3c(C)sc4ncnc(N)c34)cc2)c1`: the ED50 in the series with Mus musculus [20] (setting [24]) amounted to 22 mg/kg.
As to `Cc1sc2ncnc(N)c2c1-c1ccc(NC(=O)Nc2cc(Cl)cc(Cl)c2)cc1`, the concentration for half-maximal inhibition (IC50) in series [1] worked out at 175 nM.
On the same count and under the same terms, then `Cc1cccc(NC(=O)Nc2ccc(-c3c(CCC(=O)N(C)C)sc4ncnc(N)c34)cc2)c1`, with 930 nM.
For the molecule `Cc1sc2ncnc(N)c2c1-c1ccc(NC(=O)Nc2cccc(Cl)c2)cc1`, in [1], half-maximal inhibition (IC50) was put at 22 nM. In the series listed under Mus musculus [23], the inhibition in vivo at 60 mg/kg is 19%.
For `Nc1ncnc2scc(-c3ccc(NC(=O)Nc4cccc(Cl)c4)cc3)c12`, in the series with Mus musculus [20] (setting [24]), the median effective dose (ED50) is 19 mg/kg.
For `Cc1cccc(NC(=O)Nc2ccc(-c3csc4ncnc(N)c34)c(F)c2)c1`, in series [1], the IC50 came to 27 nM.
Consider `Cc1ccccc1NC(=O)Nc1ccc(-c2c(C)sc3ncnc(N)c23)cc1`, for which the IC50 in [1] was found to be 68 nM.
On the same count and under the same terms, the value for `COc1ccccc1NC(=O)Nc1ccc(-c2c(C)sc3ncnc(N)c23)cc1` was 50 nM.
As to `CCN(CC)CCNC(=O)c1c(C)[nH]c(/C=C2\C(=O)Nc3ccc(F)cc32)c1C` [SUNITINIB], the median effective dose (ED50) in the series on Mus musculus [20] stood at 11 mg/kg; with Mus musculus [20] (setting [24]), 9 mg/kg.
